Reference: US9573904B2, “Aromatic compound and use thereof” (Sumitomo Chemical Company, Limited, priority 2013, dated 2017)

How the values were obtained:
Assay type in all cases: in vivo
[1] = test system: cucumber target leaf spot fungus (Corynespora cassiicola); experiment: Test Example 10: cucumber target leaf spot control, foliar spray; conditions: 200 ppm spray on cucumber (SAGAMI HANJIRO)
[2] = test system: wheat rust fungus (Puccinia recondita); experiment: Test Example 2: wheat rust control, foliar spray; conditions: 500 ppm spray on wheat (SHIROGANE)
[3] = test system: cucumber anthracnose fungus (Colletotrichum lagenarium); experiment: Test Example 9 and Comparative Test Example: cucumber anthracnose control, foliar spray; conditions: 200 ppm spray on cucumber (SAGAMI HANJIRO); inoculated one day after spraying

`CNC(=O)Oc1cccc(C)c1COc1ccc(-c2nn(C)c(Cl)c2C)cc1C` [present compound 7] was tested, and the “area of lesion on the treated plant relative to that on an untreated plant” value [1] was no more than 30%.
`CNC(=O)Oc1c(C)cccc1COc1ccc(-c2nn(C)c(Cl)c2C)cc1C` [present compound 6] was tested, and the “area of lesion on the treated plant relative to that on an untreated plant” value [2] was no more than 30%.
`COC(=O)Oc1ccccc1COc1ccc(C)cc1C` [2-[(2,4-dimethylphenoxy)methyl]phenyl=methyl=carbonate] was tested, and the “area of lesion on the treated plant relative to that on an untreated plant” value [3] was no less than 70%.
